Each structure is given as a SMILES string.

We go through 13 compounds from US20220125051A1, “PRE-HARVEST DESICCATION METHOD” (SYNGENTA CROP PROTECTION AG, priority 2019, published 2022).

Experiment in all cases: Post-emergence efficacy, Method A
Common to all, as to type: in vivo

In one assay the test system is Lolium perenne (LOLPE). As to conditions: Application rate 500 g/Ha, evaluated after 13 days, 100=total damage to plant, 0=no damage to plant; for pest or weed control at 500 g/ha: Lolium perenne, post-emergence, 312 h, read-out: Control of weed species after post-emergence application, LOLPE. The method, boiled down: (§1)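 Sow in standard soil; grow 14 d under glasshouse control (24/16 °C, 14 h light, 65% humidity). Spray post-emergence with compound formulated in acetone/IF50, diluted in Empicol ESC70 (0.25% or 1%) + 1% ammonium sulphate. Return to glasshouse, water twice daily, score at 13 d on a 0–100 damage scale.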

In assay [1] the test system is Amaranthus palmeri (AMAPA). As to conditions: Application rate 500 g/Ha, evaluated after 13 days, 100=total damage to plant, 0=no damage to plant; for pest or weed control at 500 g/ha: Amaranthus palmeri, post-emergence, 312 h, read-out: Control of weed species after post-emergence application, AMAPA. The method, boiled down:
as §1

Assay [2] has as its system Ipomoea hederacea (IPOHE). The conditions noted are these: Application rate 500 g/Ha, evaluated after 13 days, 100=total damage to plant, 0=no damage to plant; for pest or weed control at 500 g/ha: Ipomoea hederacea, post-emergence, 312 h, read-out: Control of weed species after post-emergence application, IPOHE. The method, boiled down:
as §1

Assay [3] relates to Digitaria sanguinalis (DIGSA). The conditions noted are these: Application rate 500 g/Ha, evaluated after 13 days, 100=total damage to plant, 0=no damage to plant; for pest or weed control at 500 g/ha: Digitaria sanguinalis, post-emergence, 312 h, read-out: Control of weed species after post-emergence application, DIGSA. The method, boiled down: as §1
Another assay deals with Eleusine indica (ELEIN). The conditions noted are these: Application rate 500 g/Ha, evaluated after 13 days, 100=total damage to plant, 0=no damage to plant; for pest or weed control at 500 g/ha: Eleusine indica, post-emergence, 312 h, read-out: Control of weed species after post-emergence application, ELEIN. The gist of the method:
as §1

In assay [4] the test system is Euphorbia heterophylla (EPHHL). As to conditions: Application rate 500 g/Ha, evaluated after 13 days, 100=total damage to plant, 0=no damage to plant; for pest or weed control at 500 g/ha: Euphorbia heterophylla, post-emergence, 312 h, read-out: Control of weed species after post-emergence application, EPHHL. The gist of the method: as §1
Assay [5] has as its system Chenopodium album (CHEAL). As to conditions: Application rate 500 g/Ha, evaluated after 13 days, 100=total damage to plant, 0=no damage to plant; for pest or weed control at 500 g/ha: Chenopodium album, post-emergence, 312 h, read-out: Control of weed species after post-emergence application, CHEAL. The gist of the method:
as §1

In a further assay the test system is Setaria faberi (SETFA). The conditions noted are these: Application rate 500 g/Ha, evaluated after 13 days, 100=total damage to plant, 0=no damage to plant; for pest or weed control at 500 g/ha: Setaria faberi, post-emergence, 312 h, read-out: Control of weed species after post-emergence application, SETFA. The method, boiled down:
as §1

Assay [6] concerns Echinochloa crus-galli (ECHCG). The conditions noted are these: Application rate 500 g/Ha, evaluated after 13 days, 100=total damage to plant, 0=no damage to plant; for pest or weed control at 500 g/ha: Echinochloa crus-galli, post-emergence, 312 h, read-out: Control of weed species after post-emergence application, ECHCG. The gist of the method: as §1

With `O=C(O)CC[n+]1ccc(-c2ccnc(C(F)(F)F)n2)cn1` [Compound A118], the pest or weed control at 500 g/ha in the assay on Lolium perenne (LOLPE) was found to be 90%; in assay [1], 80%; in [2], 60%; in [3] it was 90%; with Eleusine indica (ELEIN), 70%; in assay [4], 90%. The pest or weed control at 500 g/ha in assay [5] came to 80%; in the assay on Setaria faberi (SETFA), 70%; in assay [6] it was 40%.
As to `O=C(O)CC[n+]1ccc(-c2cc(C(F)(F)F)ncn2)cn1` [Compound A119], the pest or weed control at 500 g/ha is 30% in the assay with Lolium perenne (LOLPE); 100% in [1]; 50% in [2]; 40% in [3]; 30% with Eleusine indica (ELEIN); 70% in [4]. Further, the pest or weed control at 500 g/ha in assay [5] was 100%; in the assay with Setaria faberi (SETFA) it was 40%; in [6], 30%.
Regarding `O=C(O)CC[n+]1ccc(-c2cncc(C(F)(F)F)n2)cn1` [Compound A120], the pest or weed control at 500 g/ha is 20% in the assay with Lolium perenne (LOLPE); 90% in [1]; 10% in assay [2]; 40% in [3]; 30% in the assay on Eleusine indica (ELEIN); 50% in [4]. For the same compound, the pest or weed control at 500 g/ha in assay [5] is 70%; with Setaria faberi (SETFA), 40%; in [6] it was 40%.
In the case of `O=C(O)CC[n+]1ccc(-c2cnc(C(F)(F)F)cn2)cn1` [Compound A121], the pest or weed control at 500 g/ha in the assay with Lolium perenne (LOLPE) came out at 30%; in [1], 100%; in [2] it was 20%; in assay [3], 40%; in the assay on Eleusine indica (ELEIN) it was 20%; in [4], 80%. Also, the results for the pest or weed control at 500 g/ha (in assay [5]; in the assay on Setaria faberi (SETFA); in assay [6]) were 80%, 30% and 40%, respectively.
For the compound `O=S(=O)([O-])CC[n+]1ccc(-c2ccc(C(F)(F)F)nn2)cn1` [Compound A122], the pest or weed control at 500 g/ha in the assay with Lolium perenne (LOLPE) stood at 70%; in assay [1], 100%; in [2] it was 70%; in assay [3] it was 40%; in the assay on Eleusine indica (ELEIN), 90%; in assay [4], 100%. The results for the pest or weed control at 500 g/ha (in assay [5]; with Setaria faberi (SETFA); in [6]) were 100%, 60% and 40%, respectively.
As to `CCOP(=O)(CC[n+]1ccc(-c2ncccn2)cn1)OCC` [Compound A124, 1-(2-diethoxyphosphorylethyl)-4-pyrimidin-2-yl-pyridazin-1-ium], the pest or weed control at 500 g/ha with Lolium perenne (LOLPE) is 0%; in assay [1] it was 0%; in [2] it was 0%; in assay [3], 10%; in the assay on Eleusine indica (ELEIN), 0%; in assay [4] it was 0%. For the same compound, the results for the pest or weed control at 500 g/ha (in assay [5]; with Setaria faberi (SETFA); in assay [6]) were 0%, 20% and 0%, respectively.
Take `O=C(O)CC[n+]1ccc(-c2ccc(C(F)(F)F)nn2)cn1` [Compound A126]: the pest or weed control at 500 g/ha in the assay on Lolium perenne (LOLPE) came to 70%; in assay [1] it was 100%; in assay [2], 30%; in [3] it was 80%; in the assay on Eleusine indica (ELEIN), 90%; in [4], 100%. For the same compound, the pest or weed control at 500 g/ha in [5] is 80%; in the assay with Setaria faberi (SETFA), 100%; in [6] it was 80%.
Regarding `O=C(O)CC[n+]1ccc(-c2nccc(=O)[nH]2)cn1` [Compound A127], the pest or weed control at 500 g/ha in the assay with Lolium perenne (LOLPE) is 10%; in [1], 10%; in assay [2], 10%; in assay [3], 80%; in the assay on Eleusine indica (ELEIN) it was 20%; in assay [4] it was 20%. The pest or weed control at 500 g/ha turned out to be 20% in [5], 30% in the assay on Setaria faberi (SETFA) and 40% in assay [6].
As to `O=C(O)CC[n+]1ccc(-c2ncccc2C(F)(F)F)cn1` [Compound A128], the pest or weed control at 500 g/ha with Lolium perenne (LOLPE) amounted to 40%; in assay [1], 30%; in assay [2], 0%; in [3] it was 30%; with Eleusine indica (ELEIN), 50%; in assay [4], 0%. Besides, the values for the pest or weed control at 500 g/ha (in [5]; in the assay on Setaria faberi (SETFA); in [6]) were 10%, 30% and 30%, respectively.
As for `O=C(O)CC[n+]1ccc(-c2ncc(C(F)(F)F)cn2)cn1` [Compound A129], the pest or weed control at 500 g/ha amounted to 80% in the assay on Lolium perenne (LOLPE); 70% in [1]; 10% in assay [2]; 60% in assay [3]; 40% with Eleusine indica (ELEIN); 70% in assay [4]. Moreover, the pest or weed control at 500 g/ha in assay [5] was 50%; in the assay with Setaria faberi (SETFA), 60%; in [6] it was 90%.
`Cc1n[n+](CCC(=O)O)ccc1-c1ncccn1.O=C([O-])C(F)(F)F` [Compound A132]: the pest or weed control at 500 g/ha in the assay on Lolium perenne (LOLPE) was found to be 50%; in [2], 10%; in [3] it was 90%; in the assay on Eleusine indica (ELEIN), 90%; in [4], 30%; in assay [5], 30%. In addition, the pest or weed control at 500 g/ha in the assay on Setaria faberi (SETFA) came to 100%; in assay [6] it was 70%. Also, the “Control of weed species after post-emergence application, AMAPA” value in assay [1] is given as 90.
Turning to `Cc1n[n+](CCC(=O)O)ccc1-c1ncccn1.[Cl-]` [Compound A133], the “Control of weed species after post-emergence application, LOLPE” value with Lolium perenne (LOLPE) amounted to 40. The “Control of weed species after post-emergence application, AMAPA” value in assay [1] is on record as 60. Besides, in [2], the “Control of weed species after post-emergence application, IPOHE” value is 20. Further, the “Control of weed species after post-emergence application, DIGSA” value in [3] is given as 70. Also, the “Control of weed species after post-emergence application, ELEIN” value in the assay with Eleusine indica (ELEIN) was 90. Besides, the “Control of weed species after post-emergence application, EPHHL” value in [4] stood at 20. In addition, the “Control of weed species after post-emergence application, CHEAL” value in assay [5] was determined as 40. Moreover, the “Control of weed species after post-emergence application, SETFA” value in the assay with Setaria faberi (SETFA) came to 90. Besides, the “Control of weed species after post-emergence application, ECHCG” value in assay [6] is recorded as 70.
In the case of `Cc1cnc(-c2cc[n+](CCS(=O)(=O)[O-])nc2)c(F)c1` [Compound A135], the pest or weed control at 500 g/ha with Lolium perenne (LOLPE) stood at 60%; in assay [1], 60%; in [2], 30%; in [3], 30%; in the assay with Eleusine indica (ELEIN) it was 70%; in assay [4], 50%. The pest or weed control at 500 g/ha in assay [5] was found to be 20%; in the assay on Setaria faberi (SETFA), 50%; in assay [6], 50%.
